One data set addresses Menin-MLL (Homo sapiens (Human), UniProt O00255). Kind of data set: Determination of binding constants (Ki) to Menin-MLL (HTRF). Conditions: HTRF, 0.25 nM H-FL-Menin, 3.2 nM FITC-MLL-4-43, 24 hr incubation; for Ki: read-out: Menin-MLL Ki HTRF Assay: Ki.
The target of the next data set is hERG (Homo sapiens (Human), UniProt Q12809). The data set is described as follows: Patch clamp assay (hERG tail currents, whole-cell). The class given is cell-based. The settings on record: hERG transfected HEK 293 cells; for hERG % Remaining 30 μM: 30 μM compound; for hERG % Remaining 10 μM: 10 μM compound. For orientation: The patch-clamp technique gives a direct electrical read-out from membranes.
hERG, sequence (Q12809 whole entry): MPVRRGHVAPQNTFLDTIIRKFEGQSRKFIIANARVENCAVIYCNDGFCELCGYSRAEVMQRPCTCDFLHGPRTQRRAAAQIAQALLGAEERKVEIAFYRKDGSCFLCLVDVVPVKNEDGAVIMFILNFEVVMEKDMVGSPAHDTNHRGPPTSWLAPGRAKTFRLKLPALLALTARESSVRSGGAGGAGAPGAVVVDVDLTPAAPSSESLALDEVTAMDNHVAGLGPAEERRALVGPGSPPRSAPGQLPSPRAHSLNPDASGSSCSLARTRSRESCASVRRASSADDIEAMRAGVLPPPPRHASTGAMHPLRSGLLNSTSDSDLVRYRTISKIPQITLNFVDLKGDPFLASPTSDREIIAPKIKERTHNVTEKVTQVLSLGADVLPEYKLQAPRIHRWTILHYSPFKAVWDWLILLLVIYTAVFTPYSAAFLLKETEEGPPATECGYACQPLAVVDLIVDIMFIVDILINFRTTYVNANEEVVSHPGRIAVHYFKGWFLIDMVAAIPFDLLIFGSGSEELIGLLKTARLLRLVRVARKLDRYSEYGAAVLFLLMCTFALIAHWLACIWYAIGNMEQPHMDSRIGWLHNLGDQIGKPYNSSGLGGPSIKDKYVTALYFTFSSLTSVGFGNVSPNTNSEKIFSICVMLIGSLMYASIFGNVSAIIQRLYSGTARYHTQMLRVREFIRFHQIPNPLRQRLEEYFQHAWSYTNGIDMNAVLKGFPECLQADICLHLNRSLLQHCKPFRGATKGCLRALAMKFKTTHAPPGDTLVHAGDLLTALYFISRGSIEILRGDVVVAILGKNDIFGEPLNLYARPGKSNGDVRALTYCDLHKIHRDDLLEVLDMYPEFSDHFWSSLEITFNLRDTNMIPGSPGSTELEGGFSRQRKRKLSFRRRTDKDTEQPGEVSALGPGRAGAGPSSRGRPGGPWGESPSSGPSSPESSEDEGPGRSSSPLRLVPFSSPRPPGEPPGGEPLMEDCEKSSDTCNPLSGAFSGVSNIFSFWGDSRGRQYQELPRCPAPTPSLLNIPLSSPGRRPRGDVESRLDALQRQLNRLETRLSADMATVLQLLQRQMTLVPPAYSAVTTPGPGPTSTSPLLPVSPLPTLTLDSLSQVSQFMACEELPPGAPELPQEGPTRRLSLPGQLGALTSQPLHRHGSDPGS

Structures are written as SMILES. Bounds are passed on as bounds.

Menin-MLL, sequence (O00255 whole entry): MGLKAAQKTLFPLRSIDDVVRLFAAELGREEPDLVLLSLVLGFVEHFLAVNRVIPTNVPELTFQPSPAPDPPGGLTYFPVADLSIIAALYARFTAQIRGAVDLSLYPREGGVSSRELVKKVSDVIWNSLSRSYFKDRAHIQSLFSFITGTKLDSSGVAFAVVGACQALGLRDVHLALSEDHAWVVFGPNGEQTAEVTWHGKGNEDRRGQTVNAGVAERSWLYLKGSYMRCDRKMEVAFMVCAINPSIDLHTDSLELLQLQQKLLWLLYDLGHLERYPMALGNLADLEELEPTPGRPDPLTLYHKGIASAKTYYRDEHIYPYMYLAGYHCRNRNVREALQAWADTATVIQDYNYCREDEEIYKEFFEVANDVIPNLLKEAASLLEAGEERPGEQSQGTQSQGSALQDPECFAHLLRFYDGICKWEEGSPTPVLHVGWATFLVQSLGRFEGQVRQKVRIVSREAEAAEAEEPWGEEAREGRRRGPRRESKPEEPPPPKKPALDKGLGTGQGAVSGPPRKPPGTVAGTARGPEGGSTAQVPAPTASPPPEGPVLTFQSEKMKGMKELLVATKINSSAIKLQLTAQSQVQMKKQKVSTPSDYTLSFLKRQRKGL
Procedure for hERG: The 35 mm culture dishes upon which cells were seeded at a density allowing single cells to be recorded were placed on the dish holder of the microscope and continuously perfused (at approximately 1 mL/min) with the bath solution described in section 4.6. All solutions applied to cells including the pipette solution were maintained at room temperature (19° C. to 30° C.). After formation of a Gigaohm seal between the patch electrodes and individual hERG stably transfected HEK 293 cells (pipette resistance range: 2.0 MΩ2 to 7.0 MΩ; seal resistance range: >1GΩ) the cell membrane across the pipette tip was ruptured to assure electrical access to the cell interior (whole-cell patch-configuration). In case the quality of the seal was poor, the process of seal formation was repeated with a different cell and a new pipette. As soon as a stable seal could be established, hERG outward tail currents were measured upon depolarization of the cell membrane to +20 mV for 2s (activation of channels) from a holding potential of −80 mV and upon subsequent repolarization to −40 mV for 3 s. This voltage protocol (as shown below) was run at least 10 times at intervals of 10 s. If current density was judged to be too low for measurement, another cell was recorded.
During wash-in of the test item the voltage protocol indicated above was run continuously again at 10 s intervals until the steady-state level of block was reached.
The IC50 was determined by fitting the dose response curve with a 2-parameter logistic function (amax=100%).

In the case of `CCNS(=O)(=O)N[C@@H]1CC[C@@H](CN2CCC3(CC2)CN(c2ncncc2Oc2ccc(F)cc2C(=O)N2[C@H](C)COC[C@H]2C)C3)OC1` [Compound 125, {[(3R,6S)-6-{[2-(5-{2-[(3R,5R)-3,5-Dimethylmorpholine-4-carbonyl]-4-fluorophenoxy}pyrimidin-4-yl)-2,7-diazaspiro[3.5]nonan-7-yl]methyl}oxan-3-yl]sulfamoyl}(ethyl)amine], the Ki – broadly, the dissociation constant of the complex between target and ligand, obtained from inhibition or displacement – at Menin-MLL is less than 1 nM. Also, the “hERG % Remaining 30 μM” value on hERG is reported as “+++ (“+++” means ≥66%)”.

Consider `C[C@@H]1COC[C@H](C)N1C(=O)c1cc(F)ccc1Oc1cncnc1N1CC2(CCN(C[C@@H]3CC[C@@H](NS(=O)(=O)c4ccccc4)CO3)CC2)C1` [Compound 130, N-((3R,6S)-6-((2-(5-(2-((3S,5R)-3,5-Dimethylmorpholine-4-carbonyl)-4-fluorophenoxy)pyrimidin-4-yl)-2,7-diazaspiro[3.5]nonan-7-yl)methyl)tetrahydro-2H-pyran-3-yl)benzenesulfonamide], for which, at Menin-MLL, the EC50 (as a rule, the concentration that produces a half-maximal response) was less than 50 nM and the Ki was less than 1 nM. On hERG, the “hERG % Remaining 10 μM” value is reported as “+++ (“+++” means ≥66%)”; the “hERG % Remaining 30 μM” value was “++ (“++” means ≥33% and <66%)”.

On to `CC(C)N(C(=O)c1cc(F)ccc1Oc1cncnc1N1CC2(CCN(C[C@@H]3CC[C@@H](NS(=O)(=O)N4CCC4)CO3)CC2)C1)[C@H]1CCOC1` [Compound 134, 2-((4-(7-(((2S,5R)-5-(Azetidine-1-sulfonamido)tetrahydro-2H-pyran-2-yl)methyl)-2,7-diazaspiro[3.5]nonan-2-yl)pyrimidin-5-yl)oxy)-5-fluoro-N-isopropyl-N-((S)-tetrahydrofuran-3-yl)benzamide], for which the Ki on Menin-MLL is less than 1 nM. Besides, on hERG, the “hERG % Remaining 30 μM” value is “+++ (“+++” means ≥66%)”.

Consider `CC(C)N(CCC#N)C(=O)c1cc(F)ccc1Oc1cncnc1N1CC2(CCN(C[C@@H]3CC[C@@H](NS(=O)(=O)c4ccccc4)CO3)CC2)C1` [Compound 136, N-(2-Cyanoethyl)-5-fluoro-N-isopropyl-2-((4-(7-(((2S,5R)-5-(phenylsulfonamido)tetrahydro-2H-pyran-2-yl)methyl)-2,7-diazaspiro[3.5]nonan-2-yl)pyrimidin-5-yl)oxy)benzamide], for which, on Menin-MLL, the EC50 was less than 50 nM and the Ki is less than 1 nM. On hERG, the “hERG % Remaining 10 μM” value is “+++ (“+++” means ≥66%)” and the “hERG % Remaining 30 μM” value was “+ (“+” means <33%)”.

In the case of `CC(C)N(C)C(=O)c1cc(F)ccc1Oc1cncnc1N1CC2(CCN(C[C@@H]3CC[C@@H](NS(=O)(=O)N4CCC4)CO3)CC2)C1` [Compound 138, 2-((4-(7-(((2S,5R)-5-(Azetidine-1-sulfonamido)tetrahydro-2H-pyran-2-yl)methyl)-2,7-diazaspiro[3.5]nonan-2-yl)pyrimidin-5-yl)oxy)-5-fluoro-N-isopropyl-N-methylbenzamide], the Ki at Menin-MLL is less than 1 nM. Further, the “hERG % Remaining 30 μM” value on hERG is recorded as “+++ (“+++” means ≥66%)”.

Turning to `CCNS(=O)(=O)N[C@@H]1CC[C@@H](CN2CCC3(CC2)CN(c2ncncc2Oc2ccc(F)cc2C(=O)N(CC)C(C)C)C3)OC1` [Compound 141, N-Ethyl-2-((4-(7-(((2S,5R)-5-((N-ethylsulfamoyl)amino)tetrahydro-2H-pyran-2-yl)methyl)-2,7-diazaspiro[3.5]nonan-2-yl)pyrimidin-5-yl)oxy)-5-fluoro-N-isopropylbenzamide], on Menin-MLL, the Ki was less than 1 nM. Also, at hERG, the “hERG % Remaining 30 μM” value is “+++ (“+++” means ≥66%)”.

With `CCN(C(=O)c1cc(F)ccc1Oc1cncnc1N1CC2(CCN(C[C@@H]3CC[C@@H](NS(=O)(=O)NC4CC4)CO3)CC2)C1)C(C)C` [Compound 142, 2-((4-(7-(((2S,5R)-5-((N-Cyclopropylsulfamoyl)amino)tetrahydro-2H-pyran-2-yl)methyl)-2,7-diazaspiro[3.5]nonan-2-yl)pyrimidin-5-yl)oxy)-N-ethyl-5-fluoro-N-isopropylbenzamide], the Ki on Menin-MLL is less than 1 nM. The “hERG % Remaining 30 μM” value on hERG is “++ (“++” means ≥33% and <66%)”.

For `CNS(=O)(=O)N[C@@H]1CC[C@@H](CN2CCC3(CC2)CN(c2ncncc2Oc2ccc(F)cc2C(=O)N(C(C)C)C(C)C)C3)OC1` [Compound 143, 5-Fluoro-N,N-diisopropyl-2-((4-(7-(((2S,5R)-5-((N-methylsulfamoyl)amino)tetrahydro-2H-pyran-2-yl)methyl)-2,7-diazaspiro[3.5]nonan-2-yl)pyrimidin-5-yl)oxy)benzamide], the Ki at Menin-MLL was less than 1 nM. Besides, at hERG, the “hERG % Remaining 30 μM” value is listed as “+++ (“+++” means ≥66%)” and the IC50 (in general, the midpoint of a concentration-inhibition curve) was not below 50 µM. Besides, the “hERG % Remaining 100 μM” value on hERG (100 μM compound) was “+++ (“+++” means ≥66%)”.

For `CCNS(=O)(=O)N[C@@H]1CC[C@@H](CN2CCC3(CC2)CN(c2ncncc2Oc2ccc(F)cc2C(=O)N(C(C)C)C(C)C)C3)OC1` [Compound 144, 2-((4-(7-(((2S,5R)-5-((N-Ethylsulfamoyl)amino)tetrahydro-2H-pyran-2-yl)methyl)-2,7-diazaspiro[3.5]nonan-2-yl)pyrimidin-5-yl)oxy)-5-fluoro-N,N-diisopropylbenzamide], the Ki on Menin-MLL was less than 1 nM. For the same compound, the “hERG % Remaining 30 μM” value on hERG is given as “+++ (“+++” means ≥66%)”.

In the case of `CCNS(=O)(=O)N[C@@H]1CC[C@@H](CN2CCC3(CC2)CN(c2ncncc2Oc2ccc(F)cc2C(=O)N(C(C)C)C2CC2)C3)OC1` [Compound 145, N-Cyclopropyl-2-((4-(7-(((2S,5R)-5-((N-ethylsulfamoyl)amino)tetrahydro-2H-pyran-2-yl)methyl)-2,7-diazaspiro[3.5]nonan-2-yl)pyrimidin-5-yl)oxy)-5-fluoro-N-isopropylbenzamide], the Ki on Menin-MLL was less than 1 nM. In addition, the “hERG % Remaining 30 μM” value on hERG is reported as “+++ (“+++” means ≥66%)”.

As for `CCNS(=O)(=O)N[C@@H]1CC[C@@H](CN2CCC3(CC2)CN(c2ncncc2Oc2ccc(F)cc2C(=O)N(CC(F)F)C(C)C)C3)OC1` [Compound 147, N-(2,2-Difluoroethyl)-2-((4-(7-(((2S,5R)-5-((N-ethylsulfamoyl)amino)tetrahydro-2H-pyran-2-yl)methyl)-2,7-diazaspiro[3.5]nonan-2-yl)pyrimidin-5-yl)oxy)-5-fluoro-N-isopropylbenzamide], at Menin-MLL, the Ki was less than 1 nM. Moreover, on hERG, the “hERG % Remaining 10 μM” value is on record as “+++ (“+++” means ≥66%)”, the “hERG % Remaining 30 μM” value is “+++ (“+++” means ≥66%)” and the IC50 is not below 50 µM.

In the case of `CC(C)N(CC(F)F)C(=O)c1cc(F)ccc1Oc1cncnc1N1CC2(CCN(C[C@@H]3CC[C@@H](NS(=O)(=O)NCC4CC4)CO3)CC2)C1` [Compound 148, 2-((4-(7-(((2S,5R)-5-((N-(Cyclopropylmethyl)sulfamoyl)amino)tetrahydro-2H-pyran-2-yl)methyl)-2,7-diazaspiro[3.5]nonan-2-yl)pyrimidin-5-yl)oxy)-N-(2,2-difluoroethyl)-5-fluoro-N-isopropylbenzamide], the Ki at Menin-MLL is less than 1 nM. Moreover, at hERG, the “hERG % Remaining 30 μM” value is reported as “+++ (“+++” means ≥66%)”.

Consider `CC(C)N(CC(F)F)C(=O)c1cc(F)ccc1Oc1cncnc1N1CC2(CCN(C[C@@H]3CC[C@@H](NS(=O)(=O)NC4CC4)CO3)CC2)C1` [Compound 149, 2-((4-(7-(((2S,5R)-5-((N-Cyclopropylsulfamoyl)amino)tetrahydro-2H-pyran-2-yl)methyl)-2,7-diazaspiro[3.5]nonan-2-yl)pyrimidin-5-yl)oxy)-N-(2,2-difluoroethyl)-5-fluoro-N-isopropylbenzamide], for which, at Menin-MLL, the Ki is less than 1 nM. At hERG, the “hERG % Remaining 30 μM” value is listed as “+++ (“+++” means ≥66%)”.

Source of the values: patent US11919901B2 (Syndax Pharmaceuticals, Inc., priority 2021, dated 2024).
